Test results reported in ChEMBL document CHEMBL4024707, “Using gene expression database to uncover biology functions of 1,4-disubstituted 1,2,3-triazole analogues synthesized via a copper (I)-catalyzed reaction” (Eur J Med Chem, 2017).
Calls of active or inactive are those of the source. The rule behind the calls is not given here.

Experiments:
[1] = tested on: Hep 3B2; experiment: Cytotoxicity against human Hep3B cells after 6 days by MTT assay; assay type: functional, cell-based; settings: 144 h
[2] = tested on: HT-29; experiment: Cytotoxicity against human HT-29 cells after 6 days by MTT assay; assay type: functional, cell-based; settings: HT-29, 144 h
[3] = tested on: Hep 3B2; experiment: Cell cycle arrest in human Hep3B cells assessed as accumulation at sub-G1 phase at 30 uM after 48 hrs by propidium iodide staining based flow cytometry (reference value: 3.7 +/- 0.4%); assay type: functional
[4] = tested on: Hep 3B2; experiment: Induction of apoptosis in human Hep3B cells assessed as ratio of cleaved caspase-3 to beta actin level at 30 uM after 48 hrs by Western blot analysis; assay type: functional
[5] = tested on: Hep 3B2; experiment: Induction of autophagy in human Hep3B cells assessed as ratio of LC3-2 to beta-actin level at 30 uM after 48 hrs by Western blot analysis; assay type: functional
[6] = tested on: Hep 3B2; experiment: Cell cycle arrest in human Hep3B cells assessed as accumulation at G2/M phase at 30 uM after 48 hrs by propidium iodide staining based flow cytometry (reference value: 36.6 +/- 2.9%); assay type: functional
[7] = tested on: Hep 3B2; experiment: Cell cycle arrest in human Hep3B cells assessed as accumulation at G0/G1 phase at 30 uM after 48 hrs by propidium iodide staining based flow cytometry (reference value: […] +/- […]%); assay type: functional
[8] = tested on: Hep 3B2; experiment: Growth inhibition of human Hep3B cells at 30 uM after 48 hrs by MTT assay; assay type: functional, cell-based
[9] = tested on: Hep 3B2; experiment: Cell cycle arrest in human Hep3B cells assessed as accumulation at S phase at 30 uM after 48 hrs by propidium iodide staining based flow cytometry (reference value: 23.8 +/- 1.9%); assay type: functional

SMILES | IC50 [1] [µM] | IC50 [2] [µM] | further results
Cc1ccc2c(c1)OCC(=O)N2Cc1cn(Cc2ccccc2)nn1 | > 100 | 54.9 | 
O=C1COc2ccc(Cl)cc2N1Cc1cn(Cc2ccccc2)nn1 | 55.5 | 76.5 | 
CCCC1Oc2ccccc2N(Cc2cn(Cc3ccccc3)nn2)C1=O (stereo unspecified) | 61.8 | > 100 | 
COc1ccc(Cn2cc(CN3C(=O)COc4ccccc43)nn2)cc1 | > 100 | 18.5 | 
O=C1COc2cc(F)ccc2N1Cc1cn(Cc2ccccc2)nn1 | 0.9 | > 100 | 
O=C1COc2ccccc2N1Cc1cn(Cc2ccccc2)nn1 | 84.5 | > 100 | 
COc1cc(/C=C/C(=O)CC(=O)/C=C/c2ccc(O)c(OC)c2)ccc1O [CURCUMIN] |  |  | Activity [3]: 14.2%; Ratio [4]: 1.2; Ratio [5]: 6.6; Activity [6]: 46.7%; Activity [7]: 22.7%; growth inhibition (GI) [8]: Active; Activity [9]: 16.4%
CC(C)(C)c1ccc(Cn2cc(CN3C(=O)COc4ccccc43)nn2)cc1 | 25.6 | 25.1 | 
Cc1cc2c(cc1Cl)N(Cc1cn(Cc3ccccc3)nn1)C(=O)CO2 | > 100 | 19.6 | 
O=C1COc2ccccc2N1Cc1cn(CCc2c[nH]c3ccccc23)nn1 | 70 | 15.2 | 
O=C1C(c2ccccc2)Oc2ccccc2N1Cc1cn(Cc2ccccc2)nn1 (stereo unspecified) | > 100 | > 100 | 
O=C1COc2ccccc2N1Cc1cn(CCc2ccccc2)nn1 | 66 | 48.8 | 
CCC1Oc2ccccc2N(Cc2cn(Cc3ccccc3)nn2)C1=O (stereo unspecified) | > 100 | > 100 | 
COc1ccc2c(c1)OCC(=O)N2Cc1cn(Cc2ccccc2)nn1 | 9.2 | 9.3 | 
O=C1COc2ccccc2N1Cc1cn(Cc2cccc3ccccc23)nn1 | 15.2 | 17 | 
CCOC(=O)c1ccc2c(c1)N(Cc1cn(Cc3ccccc3)nn1)C(=O)CO2 | 17.1 | 41.5 | 
O=C1COc2ccccc2N1Cc1cn(C/C=C/c2ccccc2)nn1 | 38.9 | > 100 | 
Cc1ccc(Cn2cc(CN3C(=O)COc4ccccc43)nn2)cc1 | > 100 | 28.6 | 
CCOC(=O)Cn1cc(CN2C(=O)COc3ccccc32)nn1 | 19 | 36.4 | 
COC(=O)Cn1cc(CN2C(=O)COc3ccccc32)nn1 | > 100 | 50.8 | 
O=C1COc2ccccc2N1Cc1cn(Cc2ccc3ccccc3n2)nn1 | > 100 | > 100 | 
O=C1COc2cccnc2N1Cc1cn(Cc2ccccc2)nn1 | 8.7 | 12.8 | 
O=C1COc2ccc(F)cc2N1Cc1cn(Cc2ccccc2)nn1 | > 100 | > 100 | 
O=C1COc2ccccc2N1Cc1cn(Cc2ccc([N+](=O)[O-])cc2)nn1 | 29.6 | 15.6 | 
CCCCCCn1cc(CN2C(=O)COc3ccccc32)nn1 | > 100 | 34.4 | 
COc1ccc2c(c1)N(Cc1cn(Cc3ccccc3)nn1)C(=O)CO2 | > 100 | > 100 | 
Cc1ccc2c(c1)N(Cc1cn(Cc3ccccc3)nn1)C(=O)CO2 | > 100 | > 100 | 
O=C1COc2ccccc2N1Cc1cn(Cc2ccc(Cl)cc2)nn1 | > 100 | 21.9 | 
